Measurements taken from patent publication US20100324079A1, “Medicament for prophylaxis and treatment of Alzheimer disease” (priority 2006, published 2010).
“Also recorded” adds a separate entry of the source. Where a name gives a salt, the structure may show the parent alone. Peptide text beside a SMILES is read from it. * marks the point of attachment. Cbz = O=C(OCc1ccccc1)*

Legend:
[1] = tested on: proteasome; experiment: Proteasome activity in SH-SY5Y cells (20S Proteasome Assay Kit, Suc-LLVY-AMC); assay type: cell-based
Experimental: As described in Example 2(1) and (2), a change in the protease activity in SH-SY5Y cells by addition of APO was studied. Measurement of the protease activity was conducted by calculating a relative specific activity by measuring fluorescence generated from degradation of a specific substrate (Suc-LLVY-AMC) using 20S Proteasome Assay Kit (BostonBiochem). Comparison between two groups was done by Student t-test.

[2] = tested on: intracellularly accumulated Aβ42; experiment: Degradation of intracellularly accumulated Aβ42 in SH-SY5Y cells (immunoblot); assay type: cell-based
Text: (§1) In order to investigate a compound that inhibits intracellular aggregation and accumulation of amyloid β proteins based on activation of intracellular proteasome, a system was constructed for assaying an activity to degrade intracellularly accumulated Aβ. Neuroblastoma cells (SH-SY5Y; ATCC) were used as culture cells and Aβ40 was artificially accumulated within the cells. […] If the activity to degrade Aβ40 was high, the activity to degrade Aβ42 was analogously thought to be high. For introducing amyloid β proteins within cells, hypertonicity influx method was used. Briefly, using Influx™ Pinocytic Cell-loading Reagent (Molecular Probe), SH-SY5Y cells (1×10^6 cells) were exposed to Aβ40 (about 200 μg; ANASPEC) with hypertonicity for 10 minutes/hypotonicity for 2 minutes so that Aβ40 peptides may be incorporated into cells via pinocytosis and spread pervasively in cytoplasm. After accumulation of Aβ40 within cells, degradation of Aβ with lapse of time was observed. […] These reagents were added to culture two hours before Aβ40 accumulation to investigate their activity.
(§2) Zero minute and thirty minutes after Aβ40 treatment, cells were collected and subjected to immunoblot. Immunoblot was performed as commonly known in the art wherein soluble proteins were extracted from cells with 2% SDS, run on Tris/Tricine gel SDS-PAGE, transblotted to PVDF membrane (Semi-dry method) and detected with an anti-Aβ antibody (4G8, Signet Pathology Systems). Quantitative evaluation was done by quantitatively evaluating the immune reaction of amyloid β proteins. Quantitative evaluation was performed by taking in the photos with Photoshop and measuring density of bands with NIH Image. […] Thus, it was considered that intracellularly accumulated Aβ40 were degraded by proteasome and that APO may enhance the degrading process.
As described in Example 1(1) and (2), degradation of intracellularly accumulated Aβ was assayed for Aβ42 provided that cells were collected 0 minute and 90 minutes after Aβ42 treatment and subjected to immunoblot.

[3] = tested on: 3×Tg mouse; experiment: Morris water maze test in heterozygous 3×Tg mice; assay type: in vivo
Experimental: 3×Tg mouse is a model mouse of Alzheimer disease (AD) developed by Oddo and LaFerla et al. at University of California, Irvine. It is a mouse having three potent causes of disease wherein a gene of an amyloid precursor protein (APP) with KM670/671NL mutation, which is a gene causative of Swedish familial AD, and a gene of a tau protein (Tau) with P301L mutation, which is one of genes causative of familial frontotemporal dementia (FTD), are incorporated into a knock-in mouse of presenilin-1 (PS1) gene with M146V mutation causative of familial AD. […] It is also reported that the memory function of 3×Tg mouse is recovered when amyloid β proteins accumulated within neurons are decreased but defects in memory relapse if amyloid β proteins become accumulated (Billings L M et al., Neuron 45: 675-688, 2005). Thus, 3×Tg mouse is a model mouse of disease highly suitable for investigating efficacy of a medicament which targets intracellularly accumulated amyloid β proteins.
For investigating efficacy of apomorphine (APO) hydrochloride administered in vivo, APO was subcutaneously injected to 3×Tg. APO was purchased from Sigma Co. To heterozygous 3×Tg (6 month old; 4 mice in each group) generated from crossbreeding of a normal mouse and a Tg mouse, each 5 mg/kg of saline or APO was subcutaneously injected weekly for 4 weeks. The animals underwent analysis by Morris water maze test to evaluate the capacity of space memory before injection and after completion of four injections.
For quantitatively evaluating the capacity of space memory relating to the memory function of the hippocampus, Morris water maze test was performed. An analytical instrument used was DV-Track Video Tracking System (Muromachi Kikai Co., Ltd.). For Morris water maze, a round-shaped pool with a diameter of 1 m is prepared and a transparent goal stand is set in an arbitrary position of the pool. The animals undergo swimming training repeatedly by starting at an arbitrary position for reaching the goal stand (FIG. 9, left panel). In case that the animals could not reach the goal stand within 60 seconds, the test is discontinued and the animals are put on the goal stand for them to memorize the position. This training is repeated four times a day for three consecutive days and as a consequence the animals come to memorize the position of the goal stand (FIG. 9, right panel). Forty eight hours after completion of learning with time for reaching the goal stand being 15 seconds or less, the animals were let to swim in the pool without the goal stand and three indexes for memory were: time lag (s) in reaching the position where the goal stand was originally placed, a frequency (n) of crossing the position as seeking for the goal stand, and residential time (%) within ¼ block of the position where the goal stand was originally placed (48-hour probe test).

[4] = tested on: intracellularly accumulated Aβ40; experiment: Degradation of intracellularly accumulated Aβ40 in SH-SY5Y cells (immunoblot, confocal microscopy); assay type: cell-based; settings: for degradation of intracellularly accumulated Aβ40 after 30 minutes: reagent added 2 hours before Aβ40 accumulation, immunoblot with 4G8
Text: as §1, §2
Aβ40 was incorporated into cells via pinocytosis as in (1) above.

[5] = tested on: 3×Tg mouse; experiment: Preventive effect to onset of AD, Morris water maze test in homozygous 3×Tg mice; assay type: in vivo; settings: weekly 5 mg/kg from 3 months old up till 6 months old, hydrochloride
Experimental: For investigating whether APO administration may prevent onset of AD, the effect of weekly administration of 5 mg/kg of APO before onset was studied. The recognition function and the pathological change in 3×Tg mice may widely vary from individual to individual and thus still much more data would be necessary for obtaining a definite conclusion.

[6] = tested on: 3×Tg mouse; experiment: Immunostaining of brain slices of 3×Tg mice (4G8, AT8); assay type: in vivo
Text: In 3×Tg mouse, it is observed that defects in the recognition function and intracellularly accumulated amyloid β proteins are correlated to each other. For evaluating amyloid β proteins accumulated within neurons, 3×Tg mice used in Example 6 were sacrificed for pathological analysis. Immunostaining was done with an antibody specific to an amyloid β protein and an antibody specific to a phosphorylated tau protein, which is a major component of neurofibrillary tangle in the AD brain. After completion of Morris water maze test after APO injection, the mice were subjected to perfusion fixation with 4% paraformaldehyde. Then, the whole brain was taken out, fixed with 4% paraformaldehyde and was left to stand in 15% sucrose for 48 hours and in 30% sucrose for 48 hours at 4° C. A slice with 20 μm thickness cut from the forehead including the hippocampus was prepared. Immunostaining was performed with 4G8 (Signet Laboratories, 1:1000) for an anti-amyloid β protein antibody and AT8 (Innogenetics, 1:200) for an anti-phosphorylated tau protein antibody using mouse to mouse immunostaining kit (Zymed) for DAB staining.

[7] = tested on: p53; experiment: p53 Western blot analysis in hydrogen peroxide treated SH-SY5Y cells; assay type: cell-based; settings: 0, 1, 3 mM hydrogen peroxide, after 24 hours
Experimental: (§3) Further, in order to study p53 level and a rate of cell survival in cell damage induced by hydrogen peroxide, p53 Western blot analysis and survival rate assay using Cell Titer-Blue Assay Kit (Promega) were performed. Hydrogen peroxide treatment was done by adding an appropriate amount (0 mM, 1 mM, and 3 mM) of hydrogen peroxide to normal culture medium for SH-SY5Y cells supplemented with 10% serum as described above. After 24 hours, the increased p53 level by addition of hydrogen peroxide was inhibited by addition of APO (FIG. 4A). A rate of cell survival was also recovered by addition of APO.

[8] = tested on: SH-SY5Y cells; experiment: Cell death induced by hydrogen peroxide in SH-SY5Y cells (cell survival); assay type: cell-based; settings: for rate of cell survival: hydrogen peroxide
Experimental: A cell death inhibitory activity of apomorphine hydrochloride to cell death induced by hydrogen peroxide was studied. Hydrogen peroxide treatment was performed by adding an appropriate amount (0 mM, 1 mM, and 3 mM) of hydrogen peroxide to normal culture medium for SH-SY5Y cells supplemented with 10% serum and by investigating cell survival after 24 hours. The cells were fixed with methanol/acetone (50%/50%) for 10 minutes so that the conditions of surviving cells could easily be observed and then subjected to immunostaining with an anti-APP C-terminal antibody (Sigma-Aldrich) using Universal Kit (DAKO). As a result, cell death was induced by hydrogen peroxide (FIG. 3, upper panels). Then, the cells were treated with 10 μM APO together with 0 mM, 1 mM, and 3 mM of hydrogen peroxide.
as §3

[9] = tested on: primary neurons from mouse fetus; experiment: Protective effect in mouse primary neurons (cell survival, beta-tubulin immunostaining); assay type: cell-based
Experimental: Primary neurons were taken from the brain of fetal mouse of 15 days old, separated by treatment with 0.03% trypsin and cultured in Neurobasal-A+B27 serum-free medium (Gibco). After stabilization by culture for about a week, the reagents were added and a rate of cell survival was measured.
Further, the above mouse primary neurons were immunostained with an antibody to beta-tubulin, a cytoskeletal protein of the axon and a network of the neurite was observed (FIG. 8).

CN1CCc2cccc3c2[C@H]1Cc1ccc(O)c(O)c1-3 [APO, apomorphine hydrochloride]
proteasome activity (relative specific activity) ([1]; APO alone, hydrochloride): enhanced the proteasome activity; also recorded: increased | decreased proteasome activity at addition of oxidative stress ([1]; oxidative stress plus APO): recovered | degradation of intracellularly accumulated Aβ42 after 90 minutes [2]: degradation after 90 minutes was enhanced | capacity of memory for the goal stand position (loci of swimming), 48-hour probe test ([3]; 3×Tg cases (2 mice) in which APO injection was efficacious, hydrochloride): the memory retention of the goal stand position was improved; also recorded: markedly improved | capacity of learning after 3-day consecutive training (time for reaching the goal stand) ([3]; heterozygous 3×Tg, 6 month old, 5 mg/kg subcutaneous weekly for 4 weeks, n=4, hydrochloride, 5 mg/kg): a tendency of improvement in the capacity of memory and learning; also recorded: slightly higher capacity of learning after treatment | frequency of crossing the goal stand, 48-hour probe test ([3]; heterozygous 3×Tg, 5 mg/kg s.c. weekly for 4 weeks, after vs before injection, p=0.03): increase in frequency of crossing the goal stand | residential time (%) within ¼ block of the goal stand, 48-hour probe test ([3]; heterozygous 3×Tg, 5 mg/kg s.c. weekly for 4 weeks, after vs before injection, p=0.04): increase in residential time | time lag in reaching the goal stand, 48-hour probe test ([3]; heterozygous 3×Tg, 5 mg/kg s.c. weekly for 4 weeks, after vs before injection, p=0.05): shortening of time lag in reaching the goal stand | change in intracellular Aβ40 with lapse of time ([4]; 10 μM APO added two hours before): degraded with lapse of time | degradation of intracellularly accumulated Aβ40 after 30 minutes [4]: degradation after 30 minutes was enhanced | degradation of intracellularly accumulated Aβ40 inhibited by MG132, effect of adding APO ([4]; with MG132, 30 minutes, immunoblot): the degradation was recovered | capacity of memory acquisition in swimming training (time lag in reaching the goal stand) [5]: comparable to Non-Tg mice; also recorded: evidently superior to that of 3×Tg mice with no treatment; also recorded: comparable to non-transgenic mice | fall-off of massive neurons ([6]; 3×Tg mice at the stage of 6-month, after administration): not observed | intraneuronal accumulation of amyloid β proteins (4G8 immunostaining) ([6]; cerebral cortex and hippocampus CA1 region, 3×Tg mice of Example 6, vs saline, hydrochloride): evidently inhibited | intraneuronal accumulation of phosphorylated tau proteins (AT8 immunostaining) ([6]; cerebral cortex and hippocampus, 3×Tg mice of Example 6, vs saline, hydrochloride): the accumulation was inhibited | p53 level increased by hydrogen peroxide [7]: inhibited | cell survival (number of surviving cells and morphological features) ([8]; 10 μM APO with 0, 1, 3 mM hydrogen peroxide, 24 hours, immunostaining): evident enhancement of cell survival | rate of cell survival ([8]; 10 μM APO, Cell Titer-Blue, p<0.0001): extremely improved | rate of cell survival ([8]; 24 hours, Cell Titer-Blue Assay Kit): recovered | network of the neurite (beta-tubulin immunostaining) ([9]; mouse primary neurons): protection and maintenance of the network | apoptosis inhibitory activity for oxidative stress (rate of cell survival) ([9]; primary neurons from fetal mouse of 15 days old): also seen in primary neurons from mouse fetus | concentration at which the effect of APO was at the peak ([9]; primary neurons from mouse fetus, rate of cell survival, thereafter declined): 10 µM

CC(C)C[C@@H](C=O)NC(=O)[C@H](CC(C)C)NC(=O)[C@H](CC(C)C)NC(=O)OCc1ccccc1 [MG132] (Cbz-Leu-Leu-Leu-aldehyde)
degradation of intracellularly accumulated Aβ42 after 90 minutes [2]: degradation was inhibited | degradation of intracellularly accumulated Aβ40 after 30 minutes [4]: degradation was inhibited

Aβ42: amyloid β protein of 42 residues; printed in b62 as the added agent, probably a misprint for APO
degradation of intracellularly accumulated Aβ42 inhibited by MG132, recovery ([2]; with MG132, 90 minutes): the degradation was recovered
